Source: patent US20190192510A1, “GPR119 AGONIST” (NIPPON CHEMIPHAR CO., LTD., priority 2010, published 2019)
Where two headings read alike, the source gives them in different places.

What was measured:
normal mice = assay: Oral glucose tolerance test in normal mice (Pharmacological Experiment 3); format: in vivo
Protocol: Oral glucose tolerance is tested in normal mice.
In this experiment, the inhibitory effect of a test compound on glycemic excursions is examined after glucose administration in normal mice. The test methods are described below.
Male 9-week-old ICR mice, habituated to the experimental environment for two weeks, are fasted for 18 hours and used to this experiment. Mice are orally administered the analyte or vehicle (polyethylene glycol 400:ethanol:Tween 80=8:1:1). After 30 minutes, they were orally given glucose at the dose of 3 g/kg.
Blood is collected at just before the analyte or vehicle administration (−30 minutes), immediately before glucose challenge (0 minute), 20 minutes, 40 minutes, 60 minutes, and 120 minutes after glucose ingestion to determine blood glucose levels.
Inhibition rate (%) of the test compound versus vehicle in areas under the glycemic excursion curve between 0 minute and 120 minutes after glucose challenge is determined. […]
Blood was collected at just before the test compound or vehicle administration (−30 min), immediately before glucose challenge (0 min), 20 min, 40 min, 60 min and 120 min after glucose ingestion and then blood glucose levels were determined.
Inhibition rate (%) of the test compound versus vehicle in areas under the glycemic excursion curve between 0 and 120 min after glucose challenge was determined.

human GPR119 = target: T1, human GPR119 (Homo sapiens, UniProt Q8TDV5); assay: Intracellular cAMP increase in human GPR119 introduced cells (Pharmacological Experiments 1 and 2); format: cell-based; details: for GPR119 agonist effect: result in words, refers to Tables 12 and 13
T1 sequence (Q8TDV5 1-335): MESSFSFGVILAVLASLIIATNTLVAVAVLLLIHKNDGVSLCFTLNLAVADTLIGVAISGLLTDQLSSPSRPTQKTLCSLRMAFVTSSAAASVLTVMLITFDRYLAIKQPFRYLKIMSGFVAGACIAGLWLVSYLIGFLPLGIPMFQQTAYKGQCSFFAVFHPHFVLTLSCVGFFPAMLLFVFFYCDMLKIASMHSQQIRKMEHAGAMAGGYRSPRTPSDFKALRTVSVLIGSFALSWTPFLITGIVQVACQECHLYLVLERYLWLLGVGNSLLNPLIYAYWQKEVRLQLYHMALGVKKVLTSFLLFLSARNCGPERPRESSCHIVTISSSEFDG
Source text: The GPR119 agonist effect is studied by measuring the effect of an analyte on increase of intracellular amount of cAMP in human GPR119 introduced cells. The testing method is described below.
Human GPR119 gene (NM 178471) is purchased from ATCC (ATCC No. 10807349), and is amplyfied according to PCR to form BamHI site at 5′ side and Apa I site at 3′ side. The forward side primer is […] (sequence No. 1), and the reverse side primer is […] (sequence No. 2). The PCR conditions are described below.
(§1) The double-stranded DNA is thermally denatured using a DNA polymerase (KOD-Plus-Ver. 2; TOYOBO #KOD-211) at 98° C. for 10 seconds in one cycle. The denatured single-stranded DNA is annealed with the primers at 55° C. for 30 seconds. The DNA is subjected to an extension reaction at 68° C. for 1 minute and 15 seconds. The above-mentioned steps are repeated in 35 cycles. The PCR product is inserted into pcDNA5/FRT/TO (Invitrogen #V6520-20) plasmid. Flp-in T-Rex-293 cells (Invitorogen #R78007) are transfected with the obtained plasmid. The method of transfection is conducted in accordance with the protocol of the product.
The stable cell line expressing human GPR119 prepared in the above-mentioned method is plated on a 96-well plate at the concentration of 2,500 cells/well using Dulbecco's Modified Eagle Medium (DMEM) containing 10% fetal bovine serum (FBS). Twenty-four hours after plating, tetracyclin (Invitrogen #Q10019) is added at the final concentration of 20 ng/mL to induce hGPR119 gene expression. Twenty-four hours after, the medium is removed, and the cells are stimulated with an assay buffer (0.5 mM IBMX PBS(−)) containing the test compound at 37° C. for 30 minutes. The amount of the intracellular cAMP is measured using a commercially available kit (HitHunter™ cAMP XS+ Assay: GE Healthcare #90007503) and a reader (FLUOstar Optima: BMG LABTECH). The test compound is dissolved in 100% DMSO, and added at the final concentration of 1%.
Human GPR119 gene (NM 178471) was purchased from ATCC (ATCC No. 10807349), and is amplyfied according to PCR to form BamHI site at 5′ side and Apa I site at 3′ side. The primers were […] (sequence No. 1) and […] (sequence No. 2). The PCR conditions are described below.
as §1, with “was” for “is”, “were” for “are”
The stable cell line expressing human GPR119 prepared in the above-mentioned method was plated on a 96-well plate at the concentration of 2,500 cells/well using Dulbecco's Modified Eagle Medium (DMEM) containing 10% fetal bovine serum (FBS). Twenty-four hours after plating, tetracyclin (Invitrogen #Q10019) was added at the final concentration of 20 ng/mL to induce hGPR119 gene expression. Twenty-four hours after, the medium was removed, and the cells were stimulated with an assay buffer (0.5 mM IBMX PBS (−)) containing the test compound at 37° C. for 30 minutes. The amount of the intracellular cAMP was measured using a commercially available kit (HitHunter™ cAMP XS+ Assay: GE Healthcare #90007503) and a reader (FLUOstar Optima: BMG LABTECH). The test compound was dissolved in 100% DMSO, and added at the final concentration of 1%.
The examination was performed by the method similar to Example 61 Pharmacological experiment 1-(1), 1-(2).

[1] = Table 12, Flp-in T-Rex-293 cells stably expressing hGPR119, intracellular cAMP, 37° C. for 30 minutes, read-out: EC50
[2] = Table 13, Pharmacological experiment 2, method similar to Example 61, read-out: EC50

GPR119 agonist effect (human GPR119)	Structure (SMILES)	EC50 (human GPR119)	other results
excellent GPR119 agonist effect	CC(C)(C)OC(=O)N1CCC(c2cnc(Cn3ccc4cc(S(C)(=O)=O)ccc43)cn2)CC1 [Example 9, tert-Butyl 4-[5-(5-methanesulfonylindol-1-ylmethyl)pyrazin-2-yl]piperidine-1-carboxylate]		Inhibition rate (%) (normal mice; 1 mg/kg oral, male ICR mice, area under glycemic excursion curve 0-120 min after glucose 3 g/kg, versus vehicle): 31.1%; inhibitory effect on glycemic excursions (normal mice; result in words, refers to Table 14): excellent inhibitory effect on glycemic excursions; EC50 (human GPR119; [1]): 0.0138 µM
	CC(C)(C)OC(=O)N1CC=C(c2cnc(COc3ccc(-n4cncn4)cc3)cn2)CC1 [Example 13, tert-Butyl 4-[5-[4-(1,2,4-triazol-1-yl)phenoxymethyl]pyrazin-2-yl]-3,6-dihydro-2H-pyridine-1-carboxylate]		melting point: 152 to 154 °C; EC50 (human GPR119; [1]): 0.13 µM
	CC(C)(C)OC(=O)N1CC=C(c2cnc(COc3ccc(S(C)(=O)=O)c(F)c3F)cn2)CC1 [Example 18, tert-Butyl 4-[5-(2,3-difluoro-4-methanesulfonylphenoxymethyl)pyrazin-2-yl]-3,6-dihydro-2H-pyridine-1-carboxylate]		melting point: 176 to 179 °C; EC50 (human GPR119; [1]): 0.11 µM
	CC(C)OC(=O)N1CC=C(c2cnc(Cn3ccc4cc(S(C)(=O)=O)c(F)c(F)c43)cn2)C(C)C1 (centres unmarked) [Example 29, Isopropyl 4-[5-(6,7-difluoro-5-methanesulfonylindol-1-ylmethyl)pyrazin-2-yl]-3-methyl-3,6-dihydro-2H-pyridine-1-carboxylate]	0.0357 µM	
	CC(C)OC(=O)N1CC=C(c2cnc(Cn3ccc4c(F)c(S(C)(=O)=O)c(F)cc43)cn2)C(C)C1 (centres unmarked) [Example 30, Isopropyl 4-[5-(4,6-difluoro-5-methanesulfonylindol-1-ylmethyl)pyrazin-2-yl]-3-methyl-3,6-dihydro-2H-pyridine-1-carboxylate]		EC50 (human GPR119; [2]): 0.137 µM
	CC(C)OC(=O)N1CCC(c2cnc(Cn3ccc4cc(-n5cnnn5)cc(F)c43)cn2)CC1 [Example 38, Isopropyl 4-[5-[7-fluoro-5-(tetrazol-1-yl)indol-1-ylmethyl]pyrazin-2-yl]piperidine-1-carboxylate]	0.0165 µM	
excellent GPR119 agonist effect	CCc1cnc(N2CCC(c3cnc(Cn4ccc5cc(-n6cnnn6)cc(F)c54)cn3)CC2)nc1 [Example 42, 5-Ethyl-2-[4-[5-[7-fluoro-5-(tetrazol-1-yl)indol-1-ylmethyl]pyrazin-2-yl]piperidin-1-yl]pyrimidine]		EC50 (human GPR119; [2]): 0.0031 µM
	CC(C)(C)OC(=O)N1CCC(c2cnc(Cn3ccc4cc(S(C)(=O)=O)cnc43)nc2)CC1 [Example 46, tert-Butyl 4-[2-(5-methanesulfonyl-1H-pyrrolo[2,3-b]pyridin-1-ylmethyl)pyrimidin-5-yl]piperidine-1-carboxylate]	0.095 µM	
	CC(C)(C)OC(=O)N1CCC(c2cnc(Cn3ccc4cc(-n5cnnn5)cc(F)c43)nc2)CC1 [Example 49, tert-Butyl 4-[2-[7-fluoro-5-(tetrazol-1-yl)indol-1-ylmethyl]pyrimidin-5-yl]piperidine-1-carboxylate]	0.0301 µM	
	CC(C)OC(=O)N1CCC(c2cnc(Cn3ccc4cc(-n5cnnn5)cc(F)c43)nc2)CC1 [Example 50, Isopropyl 4-[2-[7-fluoro-5-(tetrazol-1-yl)indol-1-ylmethyl]pyrimidin-5-yl]piperidine-1-carboxylate]	0.0174 µM	
excellent GPR119 agonist effect	CS(=O)(=O)c1cc(F)c2c(ccn2Cc2cnc(C3CCN(c4ncc(Br)cn4)CC3)cn2)c1 [Example 51, 5-Bromo-2-[4-[5-(7-fluoro-5-methanesulfonylindol-1-ylmethyl)pyrazin-2-yl]piperidine-1-yl]pyrimidine]		EC50 (human GPR119; [2]): 0.0054 µM
	Fc1cc(-n2cnnn2)cc2ccn(Cc3cnc(C4CCN(c5ncc(Br)cn5)CC4)cn3)c12 [Example 54, 5-Bromo-2-[4-[5-[7-fluoro-5-(tetrazol-1-yl)indol-1-ylmethyl]pyrazin-2-yl]piperidin-1-yl]pyrimidine]		EC50 (human GPR119; [2]): 0.0142 µM

Structure (SMILES)	GPR119 agonist effect (human GPR119)	EC50 (human GPR119)	other results
CC(C)(C)OC(=O)N1CCC(c2cnc(Cn3ccc4cc(S(C)(=O)=O)cc(F)c43)cn2)CC1 [Example 28, tert-Butyl 4-[5-(7-fluoro-5-methanesulfonylindol-1-ylmethyl)pyrazin-2-yl]piperidine-1-carboxylate]	excellent GPR119 agonist effect	0.0076 µM	
CC(C)(C)OC(=O)N1CCC(c2cnc(Cn3ccc4cc(-n5cnnn5)cc(F)c43)cn2)CC1 [Example 34, tert-Butyl 4-[5-[7-fluoro-5-(tetrazol-1-yl)indol-1-ylmethyl]pyrazin-2-yl]piperidine-1-carboxylate]	excellent GPR119 agonist effect	0.0029 µM	
